Measured values: patent US20180284095A1, “BIOMARKERS ASSOCIATED WITH LSD1 INHIBITORS AND USES THEREOF” (Oryzon Genomics, S.A., priority 2015, published 2018)

Test system: S100A9
Assay: Illumina RNA sequencing, hippocampus of SAMP8 mice (Example 4)
Format: in vivo, mouse
Description: Illumina dye sequencing begins with the attachment of cDNA molecules to primers on a slide, followed by amplification of that DNA to produce local colonies. The four types (adenine, cytosine, guanine, and thymine) of reversible terminate bases are added, each fluorescently labeled with a different color and attached with a blocking group. The four bases then compete for binding sites on the template cDNA to be sequenced and non-incorporated molecules are washed away. After each synthesis, a laser is used to excite the dyes and a photograph of the incorporated base is taken. A chemical deblocking step is then used in the removal of the 3′ terminal blocking group and the dye in a single step. The process is repeated until the full cDNA molecule is sequenced.
Illumina RNA-Seq technology records the numerical frequency of sequences in a library population. 50 bp single reads with multiples of 30M single reads are guaranteed using Illumina sequencing technology. The RNA-Seq reads are aligned to the reference genome or reference transcriptome using Bowtie generating genome/transcriptome alignments. TopHat identifies the potential exon-exon splice junctions of the initial alignment. Then Cufflinks identifies and quantifies the transcripts from the preprocessed RNA-Seq alignment assembly. After this, Cuffmerge merges the identified transcript pieces to full length transcripts and annotates the transcripts based on the given annotations. Finally, merged transcripts from two or more samples/conditions are compared using Cuffdiff to determine the differential expression levels at transcript and gene level including a measure of significance between samples/conditions.
Differential gene expression. Operating on the RNA-Seq alignments and Cuffinks processing, Cuffdiff tracks the mapped reads and determines the fragment per kilo base per million mapped reads (FPKM) for each transcript in all the samples. Primary transcripts and gene FPKMs are then computed by adding up the FPKMs of each primary transcript group or gene group. […]

Substance: (−) 5-((((trans)-2-(4-(benzyloxy)phenyl)cyclopropyl)amino)methyl)-1,3,4-oxadiazol-2-amine [Compound 1]
- Female FPKM S100A9 (hippocampus pool, SAMP8 females, 0.96 mg/kg/day, 4 months): 0.61 FPKM
- Male FPKM S100A9 (hippocampus pool, SAMP8 males, 0.32 mg/kg/day, 4 months): 1.03 FPKM
- S100A9 expression (RNA-seq) (hippocampus, SAMP8, vs vehicle-treated animals of the same sex): down-regulated S100A9 expression
